Test results from patent US20100221350A1, “DERMATOLOGICAL COMPOSITIONS COMPRISING VITAMIN D LIPID VESICLES” (GALDERMA S.A., priority 2007, published 2010).

Experiment: Preformulation stability and solubility tests of calcitriol in two excipients
Assay type: physicochemical
Details: 800 ppm; 4° C., ambient temperature and 40° C.; 1 month
Method: Preliminary preformulation studies were carried out to direct the choice of the lipid core (oily internal phase) of the lipid vesicles. The results of tests of stability and of solubility of calcitriol in two excipients are presented in the graphs below. The objective of these solubility and stability studies on calcitriol is to find the oil which will make possible good solubility of calcitriol for the proposals for internal phase used in this concept and good stability of calcitriol in this excipient. Calcitriol is stable at 800 ppm in Miglyol 812 (caprylic/capric triglyceride: MTC) and tocopherol acetate at the three temperatures (4° C., ambient temperature and 40° C.) for 1 month.

Stability of calcitriol in Miglyol 812 (caprylic/capric triglyceride): stable | Stability of calcitriol in tocopherol acetate: stable
SMILES: C=C1/C(=C\C=C2/CCC[C@]3(C)[C@@H]([C@H](C)CCCC(C)(C)O)CC[C@@H]23)C[C@@H](O)C[C@@H]1O [Calcitriol, calcitriol]
